The target in this assay is T1, Human TRPV3 (Homo sapiens, UniProt Q8NET8).
T1 construct: expressed in transfected cells; host or cells: CHO cells (selected with G-418)
T1 sequence (Q8NET8 1-790): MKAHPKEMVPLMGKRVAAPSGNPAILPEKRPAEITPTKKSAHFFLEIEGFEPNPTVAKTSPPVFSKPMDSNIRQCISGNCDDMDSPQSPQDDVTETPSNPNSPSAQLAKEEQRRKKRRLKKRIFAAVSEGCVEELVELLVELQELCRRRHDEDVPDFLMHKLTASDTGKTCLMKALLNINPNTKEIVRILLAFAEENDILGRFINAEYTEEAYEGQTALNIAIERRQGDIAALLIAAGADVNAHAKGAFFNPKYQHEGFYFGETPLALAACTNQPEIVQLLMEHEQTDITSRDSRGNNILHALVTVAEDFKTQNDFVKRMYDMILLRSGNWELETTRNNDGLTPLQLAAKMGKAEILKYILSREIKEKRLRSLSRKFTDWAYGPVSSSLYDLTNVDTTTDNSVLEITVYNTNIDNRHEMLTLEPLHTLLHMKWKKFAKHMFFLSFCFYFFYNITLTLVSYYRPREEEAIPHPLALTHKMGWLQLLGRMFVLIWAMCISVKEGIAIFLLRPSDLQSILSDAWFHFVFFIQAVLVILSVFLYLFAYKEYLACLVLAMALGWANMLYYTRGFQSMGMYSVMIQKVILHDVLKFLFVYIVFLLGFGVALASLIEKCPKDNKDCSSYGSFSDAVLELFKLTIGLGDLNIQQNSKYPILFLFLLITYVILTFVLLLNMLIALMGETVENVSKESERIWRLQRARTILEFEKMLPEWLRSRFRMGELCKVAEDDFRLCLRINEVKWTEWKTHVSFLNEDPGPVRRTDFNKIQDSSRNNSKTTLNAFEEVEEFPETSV
Nature of the assay: 45Calcium uptake assay: inhibition of 2-APB induced cellular uptake of radioactive calcium. Format: cell-based. Conditions: human TRPV3 expressing CHO cells, 2-APB 500 μM; for inhibition at 1 µM: 1 μM test compound, read-out: Percentage Inhibition (1 μM); for inhibition at 10 µM: 10 μM test compound, read-out: Percentage Inhibition (10 μM); for IC50: class symbol. An excerpt: The illustrative examples of the present invention are screened for TRPV3 activity according to a modified procedure described in Tóth, A., Kedei, N., Wang, Y. and Blumberg, P. M. Life Sciences (2003), 73, 487-498. The screening of the compounds can be carried out by other methods and procedures known to a person skilled in the art. Such screening methods may be found in (a) Hu, H.-Z. et al. J. Biol. Chem. (2004), 279, 35741-35747; (b) Smith, G. D. et al. Nature (2002), 418, 186-190; (c) Peier, A. M. et al. Science (2002), 296, 2046-2049.
Screening for TRPV3 antagonist using the ^45Calcium uptake assay The inhibition of TRPV3 receptor activation was followed as inhibition of 2-aminoethoxydiphenylborate (2-APB) induced cellular uptake of radioactive calcium. Test compounds were dissolved in dimethyl sulfoxide (DMSO) to prepare 20 mM stock solution and then diluted using plain medium with DMEM/F-12 containing 1.8 mM CaCl2 to get desired concentration. Final concentration of DMSO in the reaction was 0.5% (v/v). Human TRPV3 expressing CHO cells were grown in DMEM/F-12 medium with 10% FBS, 1% penicillin-streptomycin solution, 400 μg/ml of G-418. Cells were seeded 24 h prior to the assay in 96 well plates so as to get ˜50,000 cells per well on the day of experiment. Cells were treated with test compounds for 10 minutes followed by addition of 2-APB at a final concentration of 500 μM and 5 μCi/ml^45Ca^+2 for 4 minutes. Cells were washed and lysed using buffer containing 1% Triton X-100, 0.1% deoxycholate and 0.1% SDS. Radioactivity in the lysate was measured in Packardt Top count after addition of liquid scintillant. Concentration response curves were plotted as a % of maximal response obtained in the absence of test antagonist. IC50 value was calculated from concentration response curve by nonlinear regression analysis using GraphPad PRISM software.
Percentage inhibition at concentrations of 1.0 μM and 10.0 μM are given in the table along with IC50 details for selected examples.

The structures appear in SMILES notation. Some results are limits rather than exact numbers.

One may read the inhibition as the relative decrease from the control value, in per cent. The term IC50 denotes the midpoint of a concentration-inhibition curve. Regarding `COc1cccc(/C=C/c2nc3ccc(Cl)cc3n2-c2ccc(C#N)cn2)c1OC1CCCC1` [Example 54, 6-{6-Chloro-2-[(E)-2-(2-cyclopentyloxy-3-methoxyphenyl)vinyl]-1H-benzimidazol-1-yl}nicotinonitrile], the inhibition at 1 µM came out at 95.3%, the inhibition at 10 µM was 97.7% and the IC50 lay within 50 to 100 nM.
Regarding `COc1cccc(/C=C/c2nc3cccnc3n2-c2ccc(C#N)cn2)c1OCC1CC1` [Example 89, 6-{2-[(E)-2-(2-[Cyclopropylmethoxy]-3-methoxyphenyl)vinyl]-3H-imidazo[4,5-b]pyridin-3-yl}nicotinonitrile], the inhibition at 1 µM is 74.2%, the inhibition at 10 µM amounted to 96.6% and the IC50 was 100 to 500 nM.
For the molecule `COc1cccc(/C=C/c2nc3ccccc3n2-c2ccc([N+](=O)[O-])cn2)c1OC1CCCC1` [Example 4, 2-[(E)-2-(2-[Cyclopentyloxy]-3-methoxyphenyl)vinyl]-1-(5-nitropyridin-2-yl)-1H-benzimidazole], the inhibition at 1 µM was 50.9% and the inhibition at 10 µM came to 81.7%.
Regarding `COc1cccc(/C=C/c2nc3ccc(OC(F)F)cc3n2-c2ccc(C#N)cn2)c1OC1CCCC1` [Example 58, 6-{6-(Difluoromethoxy)-2-[(E)-2-(2-[cyclopentyloxy]-3-methoxyphenyl)vinyl]-1H-benzimidazol-1-yl}nicotinonitrile], the inhibition at 1 µM came to 96.3%, the inhibition at 10 µM is 97.9% and the IC50 was in the range of 100 to 500 nM.
For `COc1cccc(/C=C/c2nc3ccccc3n2-c2ccc(C#N)cn2)c1OCc1ccccc1F` [Example 14, 6-(2-{(E)-2-[2-(2-Fluorobenzyloxy)-3-methoxyphenyl]vinyl}-1H-benzimidazol-1-yl)nicotinonitrile], the inhibition at 1 µM is 93.2%, the inhibition at 10 µM came to 97.7% and the IC50 fell in the range of 100 to 500 nM.
Taken in the same sequence, the figures for `COc1cccc(/C=C/c2nc3ccccc3n2-c2ccc(C#N)cn2)c1OC1CCCC1` [Example 13, 6-{2-[(E)-2-(2-Cyclopentyloxy-3-methoxyphenyl)vinyl]-1H-benzimidazol-1-yl}nicotinonitrile] were 89.1%, 95.8% and 100 to 500 nM.
For `COc1cccc(/C=C/c2nc3ccccc3n2-c2ncc(C(F)(F)F)cc2Cl)c1OC1CCCC1` [Example 29, 1-[3-Chloro-5-(trifluoromethyl)pyridin-2-yl]-2-[(E)-2-(2-cyclopentyloxy-3-methoxyphenyl)vinyl]-1H-benzimidazole], in that order: 78.8%, 93.6% and 100 to 500 nM.
Taken in the same sequence, the figures for `CCCCCOc1c(/C=C/c2nc3cc(F)c(F)cc3n2-c2ccc(C#N)cn2)cccc1OC(F)F` [Example 82, 6-(2-{(E)-2-[3-(Difluoromethoxy)-2-pentyloxyphenyl]vinyl}-5,6-difluoro-1H-benzimidazol-1-yl)nicotinonitrile] were 97%, 98.9% and 50 to 100 nM.
In the case of `COc1cccc(/C=C/c2nc3ccccc3n2-c2ncccn2)c1OC1CCCC1` [Example 21], the inhibition at 1 µM is 13% and the inhibition at 10 µM was 81.9%.
As to `CCCCOc1c(/C=C/c2nc3cc(F)c(F)cc3n2-c2ccc(C#N)cn2)cccc1OC` [Example 64, 6-{2-[(E)-2-(2-Butoxy-3-methoxyphenyl)vinyl]-5,6-difluoro-1H-benzimidazol-1-yl}-nicotinonitrile], the inhibition at 1 µM was 96.4%, the inhibition at 10 µM was found to be 99.9% and the IC50 is 100 to 500 nM.
For the molecule `COc1cccc(/C=C/c2nc3ccccc3n2-c2nc3ccccc3s2)c1OCC1CC1` [Example 50, 2-{2-[(E)-2-(2-Cyclopropylmethoxy-3-methoxyphenyl)vinyl]-1H-benzimidazol-1-yl}-1,3-benzothiazole], the inhibition at 1 µM worked out at 26.1% and the inhibition at 10 µM was 46.6%.
For `COc1cccc(/C=C/c2nc3ccccc3n2-c2ncccc2C#N)c1OC1CCCC1` [Example 7, 2-{2-[(E)-2-(2-Cyclopentyloxy-3-methoxyphenyl)vinyl]-1H-benzimidazol-1-yl}nicotinonitrile], in that order: 6.4% and 92.8%.
Taken in the same sequence, the figures for `COc1cccc(/C=C/c2nc3ccccc3n2Cc2ccc(F)cc2F)c1OCC1CC1` [Example 41, 1-(2,4-Difluorobenzyl)-2-[(E)-2-(2-cyclopropylmethoxy-3-methoxyphenyl)vinyl]-1H-benzimidazole] were 57.7% and 86.5%.
Taken in the same sequence, the figures for `COc1ccccc1-n1c(/C=C/c2cccc(OC)c2OC2CCCC2)nc2ccccc21` [Example 32, 2-[(E)-2-(2-Cyclopentyloxy-3-methoxyphenyl)vinyl]-1-(2-methoxyphenyl)-1H-benzimidazole] were 9.07% and 0%.
As for `COc1cccc(/C=C/c2nc3cc(Cl)c(C(F)(F)F)cc3n2-c2ccc(C#N)cn2)c1OC1CCCC1` [Example 71, 6-{5-Chloro-2-[(E)-2-(2-cyclopentyloxy-3-methoxyphenyl)vinyl]-6-(trifluoromethyl)-1H-benzimidazol-1-yl}nicotinonitrile], the inhibition at 1 µM was found to be 53.7% and the inhibition at 10 µM is 79.4%.
As for `CCCCCOc1c(/C=C/c2nc3cc(F)c(F)cc3n2-c2ccc(C#N)cn2)cccc1OC` [Example 65, 6-{5,6-Difluoro-2-[(E)-2-(2-pentoxy-3-methoxyphenyl)vinyl]-1H-benzimidazol-1-yl}nicotinonitrile], the inhibition at 1 µM amounted to 94.9%, the inhibition at 10 µM stood at 97.4% and the concentration for half-maximal inhibition (IC50) was in the range of 50 to 100 nM.
For `COc1cccc(/C=C/c2nc3ccccc3n2-c2ccc(C(F)(F)F)cn2)c1OCC1CC1` [Example 26], in that order: 70.6%, 91.6% and greater than 500 nM.
As for `COc1cccc(/C=C/c2nc3ccccc3n2-c2ccc(C#N)nn2)c1OC1CCCC1` [Example 20, 6-{2-[(E)-2-(2-[Cyclopentyloxy]-3-methoxyphenyl)vinyl]-1H-benzimidazol-1-yl}pyridazine-3-carbonitrile], the inhibition at 1 µM came to 0% and the inhibition at 10 µM was 52.7%.
`CCOC(=O)c1ccc(-n2c(/C=C/c3cccc(OC)c3OC3CCCC3)nc3cc(F)c(F)cc32)nn1` [Example 73, Ethyl 6-{2-[(E)-2-(2-cyclopentyloxy-3-methoxyphenyl)vinyl]-5,6-difluoro-1H-benzimidazol-1-yl}pyridazine-3-carboxylate]: the inhibition at 1 µM was determined as 53.5% and the inhibition at 10 µM is 75.5%.
Turning to `COc1cccc(/C=C/c2nc3ccccc3n2-c2ccc(C#N)cn2)c1OCc1ccc(F)cc1F` [Example 18, 6-(2-{(E)-2-[2-(2,4-Difluorobenzyloxy)-3-methoxyphenyl]vinyl}-1H-benzimidazol-1-yl)nicotinonitrile], the inhibition at 1 µM stood at 94.2%, the inhibition at 10 µM stood at 97.3% and the IC50 fell in the range of 100 to 500 nM.
For the molecule `COc1cccc(/C=C/c2nc3cc(F)c(F)cc3n2-c2ccc(C#N)cn2)c1OC1CCCC1` [Example 68, 6-{2-[(E)-2-(2-Cyclopentyloxy-3-methoxyphenyl)vinyl]-5,6-difluoro-1H-benzimidazol-1-yl}nicotinonitrile], the inhibition at 1 µM was 95%, the inhibition at 10 µM came to 99.1% and the IC50 was in the range of 50 to 100 nM.
